The record followed here is publication PMC4577959 (Journal of the American Chemical Society, 2015).

The target in experiment [1] is N2B peptide (NHR2-binding motif of E-proteins) (Homo sapiens, UniProt Q99081). The conditions noted are these: ratio of Kd values, FP assay with flu-N2B.
Experiment [2] deals with fluorescein-labeled N2B peptide (NHR2-binding motif of E-proteins). Nature of the experiment: fluorescence polarisation. A general note: Polarisation of emitted light reports the rotation of a fluorescent probe.

With `CC[C@H](C)[C@@H]1NC(=O)[C@H](CO)NC(=O)[C@H](CCCNC(=N)N)NC(=O)[C@H](Cc2c[nH]c3ccccc23)NC(=O)[C@@H](NC(=O)[C@H](CCC(=O)O)NC(C)=O)CSSC[C@@H](C(=O)N[C@@H](CCCNC(=N)N)C(N)=O)NC(=O)[C@H](CC(C)C)NC(=O)[C@H](CCC(=O)O)NC(=O)[C@@H](NC(=O)[C@H](CC(C)C)NC(=O)[C@H](Cc2c[nH]cn2)NC(=O)[C@H](Cc2c[nH]c3ccccc23)NC(=O)[C@H](CC(C)C)NC(=O)[C@H](CCC(=O)O)NC(C)=O)CCCCn2cc(nn2)COCc2cn(nn2)CCCC[C@@H](C(N)=O)NC(=O)[C@H](CC(C)C)NC(=O)[C@H](C(C)C)NC(=O)[C@H](CCCNC(=N)N)NC1=O` [CHD^DS-NHR2-3], the “enhanced affinity versus the native NHR2 coiled coil” value in experiment [1] is 5 fold.
With “GST-NHR2(482–551), native Nervy homology two (NHR2) coiled coil domain of AML1-ETO (domain or fragment)”, the Kd (usually the concentration at which binding is half-saturated) in experiment [2] turned out to be 356 µM.
